Test results published in patent US20170107229A1, “SUBSTITUTED TETRAHYDROPYRIDOTHIENOPYRIMIDINES” (BAYER PHARMA AKTIENGESELLSCHAFT, priority 2014, published 2017).

Target: T1, human full-length MKNK1 (Homo sapiens, UniProt Q9BUB5, T385D)
T1 construct: GST (N); purchased Carna Biosciences 02-145; host or cells: insect cells (baculovirus expression system)
Assay: MKNK1 kinase high ATP assay (TR-FRET)
Type: biochemical
Conditions: high ATP (2 mM final), 15 min preincubation with enzyme, GST-MKNK1 (T344D)
Procedure: MKNK1-inhibitory activity at high ATP of compounds of the present invention after their preincubation with MKNK1 was quantified employing the TR-FRET-based MKNK1 high ATP assay as described in the following paragraphs.
A recombinant fusion protein of Glutathione-S-Transferase (GST, N-terminally) and human full-length MKNK1 (amino acids 1-424 and T344D of accession number BAA 19885.1), expressed in insect cells using baculovirus expression system and purified via glutathione sepharose affinity chromatography, was purchased from Carna Biosciences (product no 02-145) and used as enzyme. As substrate for the kinase reaction the biotinylated peptide biotin-Ahx-IKKRKLTRRKSLKG (C-terminus in amide form) was used, which can be purchased e.g. from the company Biosyntan (Berlin-Buch, Germany).
For the assay 50 nL of a 100fold concentrated solution of the test compound in DMSO was pipetted into a black low volume 384well microtiter plate (Greiner Bio-One, Frickenhausen, Germany), 2 μL of a solution of MKNK1 in aqueous assay buffer [50 mM HEPES pH 7.5, 5 mM MgCl2, 1.0 mM dithiothreitol, 0.005% (v/v) Nonidet-P40 (Sigma)] was added and the mixture was incubated for 15 min at 22° C. to allow pre-binding of the test compounds to the enzyme before the start of the kinase reaction. Then the kinase reaction was started by the addition of 3 μL of a solution of adenosine-tri-phosphate (ATP, 3.3 mM=>final conc. in the 5 μL assay volume is 2 mM) and substrate (0.1 μM=>final conc. in the 5 μL assay volume is 0.06 μM) in assay buffer and the resulting mixture was incubated for a reaction time of 30 min at 22° C. The concentration of MKNK1 was adjusted depending of the activity of the enzyme lot and was chosen appropriate to have the assay in the linear range, typical concentrations were in the range of 0.003 μg/mL. The reaction was stopped by the addition of 5 μL of a solution of TR-FRET detection reagents (5 nM streptavidine-XL665 [Cisbio Bioassays, Codolet, France] and 1 nM anti-ribosomal protein S6 (pSer236)-antibody from Invitrogen [#44921G] and 1 nM LANCE EU-W1024 labeled ProteinG [Perkin-Elmer, product no. AD0071]) in an aqueous EDTA-solution (100 mM EDTA, 0.1% (w/v) bovine serum albumin in 50 mM HEPES pH 7.5).
The resulting mixture was incubated for 1 h at 22° C. to allow the formation of complex between the phosphorylated biotinylated peptide and the detection reagents. Subsequently the amount of phosphorylated substrate was evaluated by measurement of the resonance energy transfer from the Eu-chelate to the streptavidine-XL. Therefore, the fluorescence emissions at 620 nm and 665 nm after excitation at 350 nm were measured in a TR-FRET reader, e.g. a Rubystar (BMG Labtechnologies, Offenburg, Germany) or a Viewlux (Perkin-Elmer). The ratio of the emissions at 665 nm and at […] was taken as the measure for the amount of phosphorylated substrate. The data were normalised (enzyme reaction without inhibitor=0% inhibition, all other assay components but no enzyme=100% inhibition).

T1 sequence (Q9BUB5 1-424 isoform Q9BUB5-2 T344D): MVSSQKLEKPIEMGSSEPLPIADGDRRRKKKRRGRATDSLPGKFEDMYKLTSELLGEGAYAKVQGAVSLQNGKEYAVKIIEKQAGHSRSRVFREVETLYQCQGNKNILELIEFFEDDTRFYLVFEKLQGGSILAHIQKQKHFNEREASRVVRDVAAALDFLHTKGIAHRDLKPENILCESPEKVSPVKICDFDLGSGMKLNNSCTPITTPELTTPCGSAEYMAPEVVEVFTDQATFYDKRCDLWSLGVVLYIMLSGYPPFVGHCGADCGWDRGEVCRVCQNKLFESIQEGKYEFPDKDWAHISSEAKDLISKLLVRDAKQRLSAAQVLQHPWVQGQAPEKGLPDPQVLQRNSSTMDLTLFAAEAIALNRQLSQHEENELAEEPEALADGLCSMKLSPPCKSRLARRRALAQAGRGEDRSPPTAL

Structure (SMILES)	IC50 [nM]
COc1cc2[nH]ncc2cc1Nc1ncnc2sc3c(c12)CCN(CC(F)(F)F)C3 [Example 12, N-(6-Methoxy-1H-indazol-5-yl)-7-(2,2,2-trifluoroethyl)-5,6,7,8-tetrahydropyrido[4′3′:4,5]thieno[2,3-d]pyrimidin-4-amine]	99
CN(C)C(=O)N1CCc2c(sc3ncnc(Nc4cc5cn[nH]c5cc4Cl)c23)C1 [Example 27, 4-[(6-Chloro-1H-indazol-5-yl)amino]-N,N-dimethyl-5,8-dihydropyrido[4′,3′:4,5]thieno[2,3-d]pyrimidine-7(6H)-carboxamide]	25
CN1CCC(C(=O)N2CCc3c(sc4ncnc(Nc5ccn6nccc6c5)c34)C2)CC1 [Example 79, (1-Methylpiperidin-4-yl)[4-(pyrazolo[1,5-a]pyridin-5-ylamino)-5,8-dihydropyrido[4′,3′:4,5]thieno[2,3-d]pyrimidin-7(6H)-yl]methanone]	188
O=C(N1CCOCC1)N1CCc2c(sc3ncnc(Nc4cc5cn[nH]c5cc4Cl)c23)C1 [Example 51, {4-[(6-Chloro-1H-indazol-5-yl)amino]-5,8-dihydropyrido[4′,3′:4,5]thieno[2,3-d]pyrimidin-7(6H)-yl}(morpholin-4-yl)methanone]	57
CN(C)C(=O)N1CCc2c(sc3ncnc(Nc4cc5cn[nH]c5cn4)c23)C1 [Example 14, N,N-Dimethyl-4-(1H-pyrazolo[3,4-c]pyridin-5-ylamino)-5,8-dihydropyrido[4′,3′:4,5]thieno[2,3-d]pyrimidine-7(6H)-carboxamide]	30
CN(C)C(=O)N1CCc2c(sc3ncnc(Nc4cnc5[nH]ncc5c4)c23)C1 [Example 13, N,N-Dimethyl-4-(1H-pyrazolo[3,4-b]pyridin-5-ylamino)-5,8-dihydropyrido[4′,3′:4,5]thieno[2,3-d]pyrimidine-7(6H)-carboxamide]	48
COc1nc2[nH]ncc2cc1Nc1ncnc2sc3c(c12)CCNC3 [Example 45, N-(6-Methoxy-1H-pyrazolo[3,4-b]pyridin-5-yl)-5,6,7,8-tetrahydropyrido[4′,3′:4,5]thieno[2,3-d]pyrimidin-4-amine]	87
CS(=O)(=O)N1CCc2c(sc3ncnc(Nc4cc5cn[nH]c5cn4)c23)C1 [Example 23, 7-(Methylsulfonyl)-N-(1H-pyrazolo[3,4-c]pyridin-5-yl)-5,6,7,8-tetrahydropyrido[4′,3′:4,5]thieno[2,3-d]pyrimidin-4-amine]	25
O=C(N1CCOCC1)N1CCc2c(sc3ncnc(Nc4cc5cn[nH]c5cc4Br)c23)C1 [Example 53, {4-[(6-Bromo-1H-indazol-5-yl)amino]-5,8-dihydropyrido[4′,3′:4,5]thieno[2,3-d]pyrimidin-7(6H)-yl}(morpholin-4-yl)methanone]	258
O=C(N1CCOCC1)N1CCc2c(sc3ncnc(Nc4ccc5[nH]ncc5c4)c23)C1 [Example 43, [4-(1H-Indazol-5-ylamino)-5,8-dihydropyrido[4′,3′:4,5]thieno[2,3-d]pyrimidin-7(6H)-yl](morpholin-4-yl)methanone]	48
CS(=O)(=O)N1CCc2c(sc3ncnc(Nc4ccn5nccc5c4)c23)C1 [Example 36, 7-(Methylsulfonyl)-N-(pyrazolo[1,5-a]pyridin-5-yl)-5,6,7,8-tetrahydropyrido[4′,3′:4,5]thieno[2,3-d]pyrimidin-4-amine]	157
C[C@@H]1CN(C(=O)N2CCc3c(sc4ncnc(Nc5cnc6[nH]ncc6c5)c34)C2)C[C@H](C)O1 [Example 35, [(2R,6S)-2,6-Dimethylmorpholin-4-yl][4-(1H-pyrazolo[3,4-b]pyridin-5-ylamino)-5,8-dihydropyrido[4′,3′:4,5]thieno[2,3-d]pyrimidin-7(6H)-yl]methanone]	27
COc1cc2[nH]ncc2cc1Nc1ncnc2sc3c(c12)CCN(C(=O)N1CCOCC1)C3 [Example 42, {4-[(6-Methoxy-1H-indazol-5-yl)amino]-5,8-dihydropyrido[4′,3′:4,5]thieno[2,3-d]pyrimidin-7(6H)-yl}(morpholin-4-yl)methanone]	22
CSc1cc2[nH]ncc2cc1Nc1ncnc2sc3c(c12)CCN(S(C)(=O)=O)C3 [Example 48, N-[6-(Methylsulfanyl)-1H-indazol-5-yl]-7-(methylsulfonyl)-5,6,7,8-tetrahydropyrido[4′,3′:4,5]thieno[2,3-d]pyrimidin-4-amine]	27
CS(=O)(=O)N1CCc2c(sc3ncnc(Nc4cnc5[nH]ncc5c4)c23)C1 [Example 40, 7-(Methylsulfonyl)-N-(1H-pyrazolo[3,4-b]pyridin-5-yl)-5,6,7,8-tetrahydropyrido[4′,3′:4,5]thieno[2,3-d]pyrimidin-4-amine]	139

Compounds with a lower IC50, results first:

IC50 [nM]	Structure (SMILES)
17	COc1cc2[nH]ncc2cc1Nc1ncnc2sc3c(c12)CCN(Cc1ncon1)C3 [Example 80, N-(6-Methoxy-1H-indazol-5-yl)-7-(1,2,4-oxadiazol-3-ylmethyl)-5,6,7,8-tetrahydropyrido[4′,3′:4,5]thieno[2,3-d]pyrimidin-4-amine]
16	CN1CCC(C(=O)N2CCc3c(sc4ncnc(Nc5ccc6[nH]ncc6c5)c34)C2)CC1 [Example 69, [4-(1H-Indazol-5-ylamino)-5,8-dihydropyrido[4′,3′:4,5]thieno[2,3-d]pyrimidin-7(6H)-yl](1-methylpiperidin-4-yl)methanone]
15	COc1cc2[nH]ncc2cc1Nc1ncnc2sc3c(c12)CCN(CCCN1CCNC1=O)C3 [Example 83, 1-(3-{4-[(6-Methoxy-1H-indazol-5-yl)amino]-5,8-dihydropyrido[4′,3′:4,5]thieno[2,3-d]pyrimidin-7(6H)-yl}propyl)imidazolidin-2-one]
12	COc1cc2[nH]ncc2cc1Nc1ncnc2sc3c(c12)CCN(CCCN1CCCC1=O)C3 [Example 86, 1-(3-{4-[(6-Methoxy-1H-indazol-5-yl)amino]-5,8-dihydropyrido[4′,3′:4,5]thieno[2,3-d]pyrimidin-7(6H)-yl}propyl)pyrrolidin-2-one]
10	COc1cc2[nH]ncc2cc1Nc1ncnc2sc3c(c12)CCN(C(=O)N1C[C@@H](C)O[C@@H](C)C1)C3 [Example 32, [(2R,6S)-2,6-Dimethylmorpholin-4-yl]{4-[(6-methoxy-1H-indazol-5-yl)amino]-5,8-dihydropyrido[4′,3′:4,5]thieno[2,3-d]pyrimidin-7(6H)-yl}methanone]
7	COc1cc2[nH]ncc2cc1Nc1ncnc2sc3c(c12)CCN(C(=O)c1cccn1C)C3 [Example 73, {4-[(6-Methoxy-1H-indazol-5-yl)amino]-5,8-dihydropyrido[4′,3′:4,5]thieno[2,3-d]pyrimidin-7(6H)-yl}(1-methyl-1H-pyrrol-2-yl)methanone]
6	COc1cc2[nH]ncc2cc1Nc1ncnc2sc3c(c12)CCN(C(=O)c1cnc[nH]1)C3 [Example 75, 1H-Imidazol-5-yl{4-[(6-methoxy-1H-indazol-5-yl)amino]-5,8-dihydropyrido[4′,3′:4,5]thieno[2,3-d]pyrimidin-7(6H)-yl}methanone]
5	COc1cc2[nH]ncc2cc1Nc1ncnc2sc3c(c12)CCN(C(=O)c1cocn1)C3 [Example 81, {4-[(6-Methoxy-1H-indazol-5-yl)amino]-5,8-dihydropyrido[4′,3′:4,5]thieno[2,3-d]pyrimidin-7(6H)-yl}(1,3-oxazol-4-yl)methanone]
3	COc1cc2[nH]ncc2cc1Nc1ncnc2sc3c(c12)CCN(CCCN1C[C@@H](C)O[C@@H](C)C1)C3 [Example 89, 7-{3-[(2R,6S)-2,6-Dimethylmorpholin-4-yl]propyl}-N-(6-methoxy-1H-indazol-5-yl)-5,6,7,8-tetrahydropyrido[4′,3′:4,5]thieno[2,3-d]pyrimidin-4-amine]
3	COc1cc2[nH]ncc2cc1Nc1ncnc2sc3c(c12)CCN(C(=O)N1C[C@H](C)O[C@@H](C)C1)C3 [Example 94, [(2S,6S)-2,6-Dimethylmorpholin-4-yl]{4-[(6-methoxy-1H-indazol-5-yl)amino]-5,8-dihydropyrido[4′,3′:4,5]thieno[2,3-d]pyrimidin-7(6H)-yl}methanone]
